Results reported in PubChem BioAssay (NCI).
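How tested: cells in 96-well plates exposed to compound for 48 hours at five concentrations. GI50: concentration for 50% inhibition of growth. The concentration for full growth arrest is given as TGI.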 Where a SMILES comes first, the peptide text is derived from it. [ ]: non-standard residue; d: D form. Ac5c = NC1(C(=O)O)CCCC1

test system: A498 renal; experiment: inhibition of tumour cell growth, NCI panel, 48 h

| SMILES | TGI [µM] | GI50 [µM] |
| --- | --- | --- |
| COc1ccc([N+](=O)[O-])c2c(NCCCN(C)C)c3ccccc3nc12 | 0.0733 | – |
| CCN1CCN(C(=O)[C@]23CC[C@@H](C)[C@H](C)[C@@H]2C2=CC[C@@H]4[C@@]5(C)C/C(=C/c6ccncc6)C(=O)C(C)(C)[C@@H]5CC[C@@]4(C)[C@]2(C)CC3)CC1 | 2.9 | 1.49 |
| NC1(C(=O)NC2(C(=O)O)CCCC2)CCCC1 (H-[Ac5c]-[Ac5c]-OH) | > 100 | – |
| COC(=O)CCc1cc(OC)c2c(c1)C(C(=O)OC)C(c1ccc(OC)c(OC)c1)O2 (stereo not drawn) | > 100 | > 100 |
| CSc1nc(C)c2c(n1)SCC2 | > 10 | – |
| CC1=C2[C@@H](CC1)[C@]1(C)O[C@@](C3CCCCC3)(C[C@H]1OC(=O)CO)[C@H]2OC(=O)/C=C/c1ccccc1 | 0.0731 | 0.0208 |
| O=C(O[C@H]1CN[C@H](C#Cc2cc3ncnc(Nc4ccc5c(ccn5Cc5cc(F)ccc5F)c4)c3s2)C1)N1CCOCC1 | 5.2 | 0.765 |
| CC(=O)c1c(C)[nH]c(-c2nc3ccc(N4CCN(C)CC4)cc3[nH]2)c1-c1ccc(OCC2CCOCC2)cc1 | 2.2 | 0.345 |
| Cc1nc2sc(C(=O)Nc3cccc(Cl)c3C)c(N)c2cc1C(=O)/C=C/c1ccccc1 | 1.4 | 0.298 |
| C=C1C(=O)O[C@H]2[C@H]1CC/C(CNC(=O)c1cc3cc(OC)ccc3[nH]1)=C\CC[C@@]1(C)O[C@@H]21 | 8.64 | 1.93 |
| O=S(=O)(NC1=NCCN1C(=S)SN1CCn2c1nsc2=S)c1ccc(Br)cc1 | > 100 | 33.7 |
| CC(=O)N[C@H]1C=C[C@@H]2/C=C(C)/C=C/[C@@H](C)[C@H]([C@H](C)[C@H](O)[C@@H](C)NC(C)=O)OC(=O)/C=C/C=C(C)\C=C\[C@]2(C)C1 | 0.0181 | 0.0045 |
| O=C1c2ccccc2-c2c1c1ccccc1c(=O)n2CCCNCCCn1ccnc1 | 7.83 | 2.05 |
| ClCc1cccc(Cn2cnc3c(NC45CC6CC(CC(C6)C4)C5)ncnc32)c1 | 31.7 | 15.4 |
| COC(=O)c1cc2c(cc1Cl)SC(N(N(C)C)S(=O)(=O)c1ccc(Br)s1)=NS2(=O)=O | 80.1 | 28.8 |
| O=c1c2cc(Cl)ccc2oc2ccc(OCCCCCN3CCCCC3)cc12 | 12.8 | 6.28 |
| O=C1c2ccccc2C(=O)N1CCCSc1ccccc1 | > 100 | – |
| CCOC(=O)Nc1nc2ccc(Cn3cccc3)cc2[nH]1 | 41.6 | – |
| COc1cc(Nc2nccc(Nc3ccc4c(C)[nH]nc4c3)n2)cc(OC)c1OC | 1.94 | 0.253 |
| COc1ccc(/C=N\NC(=O)CN2CCN(c3cc4c(cc3F)c(=O)c(C(=O)N/N=C/c3ccc(OC)c(OC)c3)cn4C3CC3)CC2)cc1OC | 23.4 | 1.4 |

test system: EKVX NSCLC; experiment: inhibition of tumour cell growth, NCI panel, 48 h

| SMILES | TGI [µM] | GI50 [µM] |
| --- | --- | --- |
| COc1ccc([N+](=O)[O-])c2c(NCCCN(C)C)c3ccccc3nc12 | 0.557 | – |
| CCN1CCN(C(=O)[C@]23CC[C@@H](C)[C@H](C)[C@@H]2C2=CC[C@@H]4[C@@]5(C)C/C(=C/c6ccncc6)C(=O)C(C)(C)[C@@H]5CC[C@@]4(C)[C@]2(C)CC3)CC1 | 3.41 | 1.47 |
| NC1(C(=O)NC2(C(=O)O)CCCC2)CCCC1 (H-[Ac5c]-[Ac5c]-OH) | > 100 | – |
| COC(=O)CCc1cc(OC)c2c(c1)C(C(=O)OC)C(c1ccc(OC)c(OC)c1)O2 (stereo not drawn) | > 100 | – |
| CSc1nc(C)c2c(n1)SCC2 | > 10 | – |
| CC1=C2[C@@H](CC1)[C@]1(C)O[C@@](C3CCCCC3)(C[C@H]1OC(=O)CO)[C@H]2OC(=O)/C=C/c1ccccc1 | 19.5 | 5.83 |
